Assay results from ChEMBL document CHEMBL5385882, “Rational design and appraisal of selective Cdc2-Like kinase 1 (Clk1) inhibitors as novel autophagy inducers for the treatment of acute liver injury (ALI)” (Eur J Med Chem, 2023).
Calls of active or inactive are those of the source. The calls are words filed in the database; no cut-off is given here.

How the values were obtained:
Mus musculus [1] = assay: Protection against APAP-induced acute liver injury in ip dosed C57BL/6 mouse model assessed as decrease in body temperature measured after 6 hrs by H and E staining method; format: functional, organism-based; details: dose 10-40 mg/kg
[2] = Cmax in Balb/c mouse at 10 mg/kg, iv measured upto24 hrs by LC/MS/MS analysis; format: ADME, organism-based; parameters: time 24 hrs, dose 10 mg/kg, route iv; details: in vivo
Mus musculus [3] = assay: Protection against APAP-induced acute liver injury in ip dosed C57BL/6 mouse model assessed as decrease in serum ALT level measured after 6 hrs; format: functional, organism-based; details: dose 10-40 mg/kg
[4] = biological target: Dual specificity protein kinase CLK1 (Mus musculus) (UniProt P22518); assay: Inhibition of Clk1 in mouse BNL CL.2 cells assessed as redistribution of serine/arginine (SR) proteins from nucleoplasmic (active form) to nuclear speckles (storage form) incubated for 24 hrs by immunofluorescence assay; format: cell-based; details: dose 1-10 µM
Dual specificity protein kinase CLK1 (Mus musculus), sequence (P22518 whole entry, looked up): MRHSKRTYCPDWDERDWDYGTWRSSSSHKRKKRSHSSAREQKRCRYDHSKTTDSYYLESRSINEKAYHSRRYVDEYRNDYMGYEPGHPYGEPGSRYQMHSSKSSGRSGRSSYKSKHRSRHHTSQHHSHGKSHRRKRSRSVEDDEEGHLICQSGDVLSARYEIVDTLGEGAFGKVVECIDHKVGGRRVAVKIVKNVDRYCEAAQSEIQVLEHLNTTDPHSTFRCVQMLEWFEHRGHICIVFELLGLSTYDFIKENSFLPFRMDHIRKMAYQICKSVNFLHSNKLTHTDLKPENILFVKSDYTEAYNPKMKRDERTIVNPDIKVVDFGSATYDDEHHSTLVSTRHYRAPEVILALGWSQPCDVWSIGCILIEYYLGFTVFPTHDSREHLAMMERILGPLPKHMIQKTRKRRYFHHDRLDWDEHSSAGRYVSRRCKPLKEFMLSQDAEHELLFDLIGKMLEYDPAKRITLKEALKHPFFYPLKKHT

Mus musculus [5] = assay: Protection against APAP-induced acute liver injury in ip dosed C57BL/6 mouse model assessed as decrease in serum AST level measured after 6 hrs; format: functional, organism-based
HeLa [6] = assay: Induction of autophagy in human HeLa cells assessed as ratio of LC3II protein to LC3I incubated for 24 hrs by Western blot analysis; format: functional, cell-based; details: dose 0.2-10 nM
[7] = biological target: T1, Dual specificity tyrosine-phosphorylation-regulated kinase 1A (Homo sapiens, UniProt Q13627); assay: Inhibition of human full length recombinant DYRK1A assessed as remaining activity using RRRFRPASPLRGPP as substrate at 100 nM by [gamma-32P]ATP binding based scintillation counting based analysis relative to control
[8] = Clearance in Balb/c mouse at 10 mg/kg, iv measured upto24 hrs by LC/MS/MS analysis; format: ADME, organism-based; details: in vivo, time 24 hrs
HeLa [9] = assay: Induction of autophagy in human HeLa cells infected with RFP-GFP-LC3 assessed as increased the number of yellow LC3 puncta at 10 uM after 24 hrs by confocal microscopy; format: functional, cell-based
[10] = Clearance in Balb/c mouse at 10 mg/kg, po measured upto24 hrs by LC/MS/MS analysis; format: ADME, organism-based; details: in vivo, time 24 hrs
[11] = biological target: T2, Dual specificity protein kinase CLK1 (Homo sapiens, UniProt P49759); assay: Binding affinity to Clk1 protein (unknown origin) assessed as inhibition of degradation in presence of 1:15 pronase to compound concentration
Target sequence in this assay (P49759 whole entry, looked up): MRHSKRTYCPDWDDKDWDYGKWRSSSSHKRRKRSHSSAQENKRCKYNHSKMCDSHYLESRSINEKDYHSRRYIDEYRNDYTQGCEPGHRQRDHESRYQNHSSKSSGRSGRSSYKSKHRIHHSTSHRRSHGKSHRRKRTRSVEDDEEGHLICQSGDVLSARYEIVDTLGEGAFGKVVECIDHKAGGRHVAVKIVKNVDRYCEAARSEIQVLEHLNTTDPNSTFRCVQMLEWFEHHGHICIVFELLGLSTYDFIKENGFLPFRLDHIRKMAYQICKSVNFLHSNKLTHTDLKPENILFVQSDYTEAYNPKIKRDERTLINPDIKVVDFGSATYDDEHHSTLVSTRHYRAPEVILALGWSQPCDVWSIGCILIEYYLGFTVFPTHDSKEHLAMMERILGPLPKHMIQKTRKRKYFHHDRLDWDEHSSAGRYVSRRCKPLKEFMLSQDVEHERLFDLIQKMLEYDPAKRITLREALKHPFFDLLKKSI

[12] = AUC (0 to t) in Balb/c mouse at 10 mg/kg, po measured upto24 hrs by LC/MS/MS analysis; format: ADME, organism-based; parameters: dose 10 mg/kg, time 24 hrs, route po; details: in vivo
[13] = Oral bioavailability in Balb/c mouse at 10 mg/kg measured upto24 hrs by LC/MS/MS analysis; format: ADME, organism-based; details: in vivo, time 24 hrs
[14] = Half life in Balb/c mouse at 10 mg/kg, po measured upto24 hrs by LC/MS/MS analysis; format: ADME, organism-based; details: in vivo, time 24 hrs
HeLa [15] = assay: Induction of autophagy in human HeLa cells assessed as increase in LC3II protein at 10 uM by Western blot analysis; format: functional, cell-based; details: time 3-24 hrs, TDE = time-dependent effect
[16] = Metabolic stability in human liver microsomes assessed as half life at 10 uM incubated for 5 mins in the presence of NADPH-generating system by LC-MS/MS analysis; format: ADME, Microsome
[17] = Half life in Balb/c mouse at 10 mg/kg, iv measured upto24 hrs by LC/MS/MS analysis; format: ADME, organism-based; details: in vivo, time 24 hrs
Mus musculus [18] = assay: Protection against APAP-induced acute liver injury in ip dosed C57BL/6 mouse model assessed as volume of hepatocytes measured after 6 hrs by H and E staining method; format: functional, organism-based; details: dose 10-40 mg/kg
[19] = Clearance in Balb/c mouse at 10 mg/kg, ip measured upto24 hrs by LC/MS/MS analysis; format: ADME, organism-based; details: in vivo, time 24 hrs
Mus musculus [20] = assay: Protection against APAP-induced acute liver injury in ip dosed C57BL/6 mouse model assessed as necrotic hepatocytes measured after 6 hrs by H and E staining method; format: functional, organism-based; details: dose 10-40 mg/kg
[21] = biological target: T2, Dual specificity protein kinase CLK1; assay: Inhibition of human 130-end recombinant CLK1 assessed as remaining activity using ERMRPRKRQGSVR as substrate at 100 nM by [gamma-32P]ATP binding based scintillation counting based analysis relative to control
Target sequence in this assay (P49759 whole entry, looked up): as above

[22] = biological target: T1, Dual specificity tyrosine-phosphorylation-regulated kinase 1A; assay: Inhibition of human full length recombinant DYRK1A assessed as remaining activity using RRRFRPASPLRGPP as substrate by [gamma-32P]ATP binding based scintillation counting based analysis
[23] = Cmax in Balb/c mouse at 10 mg/kg, po measured upto24 hrs by LC/MS/MS analysis; format: ADME, organism-based; parameters: dose 10 mg/kg, time 24 hrs, route po; details: in vivo
Mus musculus [24] = assay: Protection against APAP-induced acute liver injury in ip dosed C57BL/6 mouse model assessed as tiny vacuoles in hepatocyte cytoplasm measured after 6 hrs by H and E staining method; format: functional, organism-based; details: dose 10-40 mg/kg
[25] = Cmax in Balb/c mouse at 10 mg/kg, ip measured upto24 hrs by LC/MS/MS analysis; format: ADME, organism-based; parameters: dose 10 mg/kg, time 24 hrs, route ip; details: in vivo
HeLa [26] = assay: Induction of autophagy in human HeLa cells assessed as ratio of LC3II protein to LC3I at 10 uM by Western blot analysis; format: functional, cell-based; details: time 3-24 hrs, TDE = time-dependent effect
Homo sapiens = species on record: Homo sapiens; assay: Selectivity index, ratio of IC50 for inhibition of human full length recombinant DYRK1A to IC50 for inhibition of human 130-end recombinant CLK1
[27] = AUC (0 to t) in Balb/c mouse at 10 mg/kg, iv measured upto24 hrs by LC/MS/MS analysis; format: ADME, organism-based; parameters: time 24 hrs, dose 10 mg/kg, route iv; details: in vivo
HeLa [28] = assay: Induction of autophagy in human HeLa cells assessed as degradation of SQSTM1/p62 at 10 uM incubated for 24 hrs by Western blot analysis; format: functional, cell-based
[29] = Metabolic stability in human liver microsomes assessed as clearance at 10 uM incubated for 5 mins in the presence of NADPH-generating system by LC-MS/MS analysis; format: ADME, Microsome
[30] = Half life in Balb/c mouse at 10 mg/kg, ip measured upto24 hrs by LC/MS/MS analysis; format: ADME, organism-based; details: in vivo, time 24 hrs
[31] = AUC (0 to t) in Balb/c mouse at 10 mg/kg, ip measured upto24 hrs by LC/MS/MS analysis; format: ADME, organism-based; parameters: time 24 hrs, dose 10 mg/kg, route ip; details: in vivo
HeLa [32] = assay: Induction of autophagy in human HeLa cells assessed as increase in LC3II protein incubated for 24 hrs by Western blot analysis; format: functional, cell-based; details: dose 0.2-10 µM
[33] = biological target: T2, Dual specificity protein kinase CLK1; assay: Inhibition of human 130-end recombinant CLK1 assessed as remaining activity using ERMRPRKRQGSVR as substrate by [gamma-32P]ATP binding based scintillation counting based analysis
Target sequence in this assay (P49759 whole entry): as the sequence (P49759 whole entry, looked up) above

Cmax [2]: 13200 ng/mL
inhibition [4]: Dose-Dependent Effect
Activity [7]: 72%
clearance [8]: 17.5 mL/min/kg
CL/F [10]: 91.8 mL/min/kg
Activity [11]: Dose-Dependent Effect
AUC(0-t) at 24 h [12]: 1860 ng·h/mL
bioavailability [13]: 19.5%
half-life [14]: 317 min
half-life at 10 µM [16]: > 120 min
half-life [17]: 178 min
CL/F [19]: 59.7 mL/min/kg
Activity [21]: 2%
IC50 [22]: 1520 nM
Cmax [23]: 1460 ng/mL
Cmax [25]: 4650 ng/mL
Selectivity Index (Homo sapiens): 304
AUC(0-t) at 24 h [27]: 9520 ng·h/mL
CLH [29]: < 12 mL/min/g
half-life [30]: 196 min
AUC(0-t) at 24 h [31]: 5010 ng·h/mL
IC50 [33]: 5 nM
Structure (SMILES): CN1CCN(c2ccc(C(=O)Nc3cnc4[nH]cc(-c5cncc(F)c5)c4c3)cc2)CC1
Activity (Mus musculus [1]): Dose-Dependent Effect
Activity (Mus musculus [3]): Dose-Dependent Effect
Activity (Mus musculus [5]): Dose-Dependent Effect
Activity (HeLa [6]): Dose-Dependent Effect
Activity (HeLa [9]): Active
Activity (HeLa [15]): Tde
Activity (Mus musculus [18]): Dose-Dependent Effect
Activity (Mus musculus [20]): Dose-Dependent Effect
Activity (Mus musculus [24]): Dose-Dependent Effect
Activity (HeLa [26]): Tde
Activity (HeLa [28]): Active
Activity (HeLa [32]): Dose-Dependent Effect
